# Patent US20080166427A1, “Method for Reducing Gastrointestinal Toxicity Due to the Administration of Tegafur” (Taiho Pharmaceutical Co., Ltd, priority 2004, published 2008)
# Tests used:
# clinical = type: in vivo, human
# Method: The patient's diagnosis were CRC (7), breast (3), gastric (3) and other (4).
# A total of 17 patients were entered in this pharmacokinetic study after informed consent.
# Blood was sampled during 24 hours. […] Blood samples were taken by venipuncture in heparinized tubes of 9 ml and transported on ice for immediate processing.
# Blood samples were centrifuged for 5 min at 4000 rpm and 4° C. The plasma was transferred to 2 eppendorf vials of 2 ml and stored at −20° C.
# Analysis for tegafur and cyanuric acid was performed by validated HPLC assays, while the analysis of the other compounds was performed after derivatization by validated gas-chromatography-mass spectrometry methods as described previously [Peters G. J., Noordhuis P., Van Kuilenburg A. B. P., Schornagel J. H., Gall H., Turner S. L., Swart M. S., Voorn D., Van Gennip A. H., Wanders J., Holwerda U., Smid K., Giaccone G., Fumoleau P. and Van Groeningen C. […] Cancer Chemother. Pharmacol., 38: 1-12, 2003.].
# The pharmacokinetic parameters for tegafur, 5FU, oxonic acid, cyan uric acid, and CDHP were calculated with the computer program WinNonLin (version 1.5). The data were analyzed using non-compartment modeling. The parameters that could be established were: time point of maximum observed concentration in plasma (Tmax), concentration in plasma corresponding to Tmax (Cmax), terminal half-life (t½), area under the plasma concentration versus time (C-t) curve (AUCall).
# [1] = target: T1, dihydropyrimidine dehydrogenase (DPD) (Homo sapiens, UniProt Q12882); experiment: Inhibition of dihydropyrimidine dehydrogenase; type: biochemical; conditions: vs uracil
# T1 sequence (Q12882 4-1025): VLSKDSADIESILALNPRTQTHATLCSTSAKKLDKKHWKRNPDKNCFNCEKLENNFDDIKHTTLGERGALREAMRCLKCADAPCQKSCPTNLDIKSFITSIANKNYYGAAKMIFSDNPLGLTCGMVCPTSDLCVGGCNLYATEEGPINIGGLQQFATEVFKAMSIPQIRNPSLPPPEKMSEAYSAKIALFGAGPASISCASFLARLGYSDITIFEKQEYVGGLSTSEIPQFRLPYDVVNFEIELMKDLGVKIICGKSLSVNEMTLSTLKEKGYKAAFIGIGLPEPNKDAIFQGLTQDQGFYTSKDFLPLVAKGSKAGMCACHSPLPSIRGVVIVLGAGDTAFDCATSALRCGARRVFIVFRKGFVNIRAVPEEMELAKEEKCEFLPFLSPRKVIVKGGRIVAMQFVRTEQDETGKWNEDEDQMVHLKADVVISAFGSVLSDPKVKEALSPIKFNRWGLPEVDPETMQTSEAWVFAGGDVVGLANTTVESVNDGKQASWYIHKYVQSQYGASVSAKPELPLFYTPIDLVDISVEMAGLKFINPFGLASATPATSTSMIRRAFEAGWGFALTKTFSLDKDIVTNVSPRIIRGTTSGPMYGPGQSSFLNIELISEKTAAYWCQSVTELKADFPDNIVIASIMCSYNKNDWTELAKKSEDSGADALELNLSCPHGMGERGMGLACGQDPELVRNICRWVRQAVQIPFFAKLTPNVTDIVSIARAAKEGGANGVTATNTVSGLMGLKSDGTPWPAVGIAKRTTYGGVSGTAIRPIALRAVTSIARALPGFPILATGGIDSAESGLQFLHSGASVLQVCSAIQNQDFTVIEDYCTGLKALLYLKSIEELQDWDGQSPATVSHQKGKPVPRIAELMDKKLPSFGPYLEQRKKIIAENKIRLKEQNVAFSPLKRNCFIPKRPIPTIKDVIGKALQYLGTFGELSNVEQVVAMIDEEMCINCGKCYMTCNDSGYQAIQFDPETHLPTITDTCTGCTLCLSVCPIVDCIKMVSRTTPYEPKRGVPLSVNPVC
# Excerpt: It is gradually converted to 5-FU in vivo. • CDHP inhibits the catabolism of 5-FU by reversibly inhibiting the enzyme of dihydropyrimidine dehydrogenase (DPD). […] CDHP helps maintain effective blood and tumor concentrations of 5-FU for a prolonged period thus potentially achieving a similar therapeutic effect as protracted infusion of 5-FU. • Oxo blocks phosphorylation of 5-FU by orotate phosphoribosyltransferase (OPRT) in the gastrointestinal tract. […] Oxo is acid labile and thus its bioavailability is affected by food intake.
# advanced gastric cancer = conditions: in vivo
# [2] = human, in vivo, po, 35 mg/m2, AUCall
# [3] = human, in vivo, po, 35 mg/m2, Cmax
# [4] = human, in vivo, po, 35 mg/m2, t½
# [5] = human, in vivo, po, 35 mg/m2, Tmax
# [6] = comparison fasting vs feeding group, S-1 35 mg/m^2
AUC (clinical; [2]),Cmax (clinical; [3]),half-life (clinical; [4]),"Tmax, without breakfast vs after breakfast (clinical; in vivo)","t½, fasting vs feeding group (clinical; in vivo)",Tmax (clinical; [5]),SMILES,further results
15700 ng·h/mL,2370 ng/mL,8.6 h,earlier without breakfast,no significant difference,,"O=c1[nH]c(=O)n(C2CCCO2)cc1F (racemic) [FT, 5-Fluoro-1-[(RS)-tetrahydrofuran-2-yl]pyrimidine-2,4-(1H,3H)-dione, reference compound]","Tmax (clinical; human, in vivo, po, 35 mg/m2): 0.6 h"
1100 ng·h/mL,210 ng/mL,2.2 h,reached earlier without breakfast,no significant difference,1.8 h,"O=c1[nH]cc(F)c(=O)[nH]1 [5-FU, 5-fluorouracil, reference compound]",
,,,,,,"O=c1[nH]c(=O)[nH]c(=O)[nH]1 [CA, cyanuric acid]","AUCall, fasting vs feeding group (clinical; [6]): higher values in the feeding group as compared to the fasting group; Cmax, fasting vs feeding group (clinical; [6]): not significantly different; Tmax, without breakfast vs after breakfast (clinical; [6]): faster Tmax without breakfast; t½, fasting vs feeding group (clinical; [6]): not significantly different; AUC (clinical; human, in vivo, po, 35 mg/m2, plasma, mean, S-1 35 mg/m^2 oral, fasted patients, read-out: AUCall): 517 ng·h/mL; Cmax (clinical; human, in vivo, po, 35 mg/m2, plasma, mean, S-1 35 mg/m^2 oral, fasted patients, read-out: Cmax): 118 ng/mL; Tmax (clinical; human, in vivo, po, 35 mg/m2, plasma, mean, S-1 35 mg/m^2 oral, fasted patients, read-out: Tmax): 1.3 h; half-life (clinical; human, in vivo, po, 35 mg/m2, plasma, mean, S-1 35 mg/m^2 oral, fasted patients, read-out: t½ (converted)): 5.3 h; AUC (clinical; human, in vivo, po, 35 mg/m2, plasma, mean, S-1 35 mg/m^2 oral, fed patients, read-out: AUCall): 1220 ng·h/mL; Cmax (clinical; human, in vivo, po, 35 mg/m2, plasma, mean, S-1 35 mg/m^2 oral, fed patients, read-out: Cmax): 160 ng/mL; Tmax (clinical; human, in vivo, po, 35 mg/m2, plasma, mean, S-1 35 mg/m^2 oral, fed patients, read-out: Tmax): 3.5 h; half-life (clinical; human, in vivo, po, 35 mg/m2, plasma, mean, S-1 35 mg/m^2 oral, fed patients, read-out: t½ (converted)): 6.7 h"
1920 ng·h/mL,464 ng/mL,4.5 h,reached earlier without breakfast,no significant difference,1.1 h,"Oc1cc(O)c(Cl)cn1 [CDHP, 5-chloro-2,4-dihydroxypyridine]",potency of DPD inhibition relative to uracil [1]: 180 fold
,,3.9 h,significantly faster without breakfast,not significantly different,1.6 h,"O=C(O)c1nc(=O)[nH]c(=O)[nH]1 [Oxo, potassium oxonate]","effect of food on bioavailability (clinical; human, in vivo, po): profound effect; AUCall (clinical; human, in vivo, po, 35 mg/m2): 808.7 ng·h/mL; Cmax (clinical; human, in vivo, po, 35 mg/m2): 158.1 ng/mL"
,,,,,,N.N.[Cl][Pt][Cl] [cisplatin],recommended dose for the phase II portion (advanced gastric cancer): 60 mg/m^2
